Source: PubChem BioAssay (NCI)
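Grown in 96-well plates, cells were treated for 48 hours with each compound at five concentrations. Insufficient inhibition: endpoint recorded as highest concentration tested. GI50: concentration for 50% inhibition of growth. TGI: total growth inhibition.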

Key:
Experiment in all cases: NCI anticancer screen, dose series, 48 h
[1] = test system: MCF7 breast
[2] = test system: K-562 leukemia
[3] = test system: U251 CNS
[4] = test system: UACC-257 melanoma
[5] = test system: SR leukemia
[6] = test system: SF-268 CNS
[7] = test system: HCT-15 colon
[8] = test system: DLD-1 colon
[9] = test system: LXFL 529 NSCLC
[10] = test system: M19-MEL melanoma
[11] = test system: DMS 114 small cell lung
[12] = test system: KM20L2 colon
[13] = test system: DMS 273 small cell lung
[14] = test system: HOP-18 NSCLC
[15] = test system: SNB-78 CNS

| Structure (SMILES) | TGI [1] [µM] | TGI [2] [µM] | TGI [3] [µM] | TGI [4] [µM] | TGI [5] [µM] | TGI [6] [µM] | TGI [7] [µM] | TGI [8] [µM] | TGI [9] [µM] | TGI [10] [µM] | TGI [11] [µM] | TGI [12] [µM] | TGI [13] [µM] | GI50 [2] [µM] | TGI [14] [µM] | TGI [15] [µM] |
| --- | --- | --- | --- | --- | --- | --- | --- | --- | --- | --- | --- | --- | --- | --- | --- | --- |
| COC(=O)c1cccc(C)c1C1CN=NC12Cc1cc(C)cc(C)c1C2=O (centres undefined) | > 100 | > 100 | > 100 | > 100 | > 100 | > 100 | > 100 |  |  |  |  |  |  |  |  |  |
| N=c1oc2ccccc2cc1C(=O)NC12CC3CC(CC(C3)C1)C2 | 18.3 | 72.1 | 43.8 | 70.9 | 11.4 | > 100 | 67.5 |  |  |  |  |  |  |  |  |  |
| O=C1SC(SCc2ccccc2)=NC12CC2c1ccccc1 (centres undefined) | 40.1 | 55.3 | 39 | 38.5 | 52.5 | 70.1 | 51.4 |  |  |  |  |  |  |  |  |  |
| C=CCNC(=S)N/C=C(\C#N)C(N)=O | > 100 | > 100 | > 100 | > 100 | > 100 | > 100 | > 100 |  |  |  |  |  |  |  |  |  |
| O=C1c2cccc3cc([N+](=O)[O-])cc(c23)C(=O)N1Nc1ccc([N+](=O)[O-])cc1[N+](=O)[O-] | > 31.6 | > 31.6 | 29.3 | 24.1 | 11.6 | > 31.6 | 27.4 |  |  |  |  |  |  |  |  |  |
| N#CSC#CCCC#CSC#N | 48.2 | > 100 | 30.5 | 32.2 | > 100 | > 100 | 34.8 |  |  |  |  |  |  |  |  |  |
| Cc1cc(OC(=O)Nc2cccc3ccccc23)c(C(C)C)cc1C(=S)Nc1ccccc1 | 34.7 | 43.2 | 35.4 | 50.5 | 33.5 | 77.6 | 29.2 |  |  |  |  |  |  |  |  |  |
| COc1cc2c(/C=C3/C(=O)Nc4cccc(Cl)c43)c(Cl)[nH]c2cc1C | 8.35 | 3.64 | 3.99 | 10.2 | 2.95 | 19.8 | 4.29 |  |  |  |  |  |  |  |  |  |
| O=S(=O)(O)c1cc(N=Nc2c(O)ccc3ccccc23)cc2c(S(=O)(=O)O)cccc12 | > 100 | > 100 | > 100 | > 100 | > 100 | > 100 | > 100 |  |  |  |  |  |  |  |  |  |
| CON(C)C(=O)C(C)N(Cc1ccccc1)Cc1ccccc1 (centres undefined) | > 100 | > 100 | > 100 | > 100 | > 100 | > 100 | > 100 |  |  |  |  |  |  |  |  |  |
| COC(=O)CC(C)(NS(=O)c1ccc(C)cc1)c1ccccc1 (centres undefined) | > 100 | > 100 | > 100 | > 100 | > 100 | > 100 | > 100 |  |  |  |  |  |  |  |  |  |
| CCOC(=O)c1cn2c(n1)sc1cc(F)ccc12 | > 100 | > 100 | > 100 | > 100 | > 100 | > 100 | > 100 |  |  |  |  |  |  |  |  |  |
| CC(=O)CC1CCC(=O)/C=C/C(=O)OC(CC(C)=O)CCC(=O)/C=C/C(=O)O1 (centres undefined) | 27.6 | > 20.9 | 42.8 | 31.4 | > 100 | 74 | 4.16 |  |  |  |  |  |  |  |  |  |
| C(=C/CCCN1O[C@@H](CCCCCCCCc2cccnc2)[C@H]2CCC[C@H]21)/CCCCCCCCCc1cccnc1 | 31.6 | 29 | 34.5 | 41.7 | 51.5 | 63.7 | 58.9 |  |  |  |  |  |  |  |  |  |
| N#Cc1cccc(-n2[nH]c(=O)ccc2=O)c1 |  | > 100 | > 100 | > 100 | > 100 | > 100 | > 100 | > 100 | > 100 | > 100 | > 100 | > 100 | > 100 |  |  |  |
| COCOC1/C=C/CCCCC(=O)C(C)C#CC1 (centres undefined) | 14.8 | 7.66 | 28 | 19.5 | 8.02 | 35.1 | 7.11 |  |  |  |  |  |  |  |  |  |
| Cc1ccc(S(=O)(=O)N2C3C=CC(C3)[C@@H]2C(Cl)(Cl)Cl)cc1 (some centres undefined) | > 100 | > 100 | 40.1 | 60.5 | 43.2 | 46.9 | 62.6 |  |  |  |  |  |  | 28.5 |  |  |
| CCCC/C=C/C=C/C=C/CCCCCCCC(=O)OCC(COC(=O)CCCCCCC/C=C/C1C=CC(CCCC)C(C(=O)O)C1C(=O)O)OC(=O)CCCCCCC/C=C/C=C/C=C/CCCC (centres undefined) (tested in a mixture with another compound) |  | 44.2 |  | 34.9 |  | 36.1 | 30.8 | 40 | 32.8 | 36.9 | 23.1 | 48.1 | 29.9 |  | 47.8 |  |
| C[C@]12c3c4cc(NC(=O)C(=O)NCc5ccc(-c6ccccn6)nc5)cc3Oc3cc(NC(=O)C(=O)NCc5ccc(-c6ccccn6)nc5)cc(c31)OC1C=C(NC(=O)C(=O)NCc3ccc(-c5ccccn5)nc3)C=C(O4)C12 (some centres undefined) | > 100 | > 100 | > 100 | > 100 | 51.9 | > 100 | > 100 |  |  |  |  |  |  |  |  |  |
| Nc1nc(Cl)cc(OCC2(CO)CC=CC2)n1 | > 100 | > 100 | > 100 | > 100 | > 100 | > 100 | > 100 |  |  |  |  |  |  |  |  |  |
| COc1ccc(S(=O)(=O)n2c3c(c4ccccc42)[C@@H]2[C@@H](CCCN2C(=O)CS(=O)c2ccc(C)cc2)[C@H](Cl)C3)cc1 (some centres undefined) | > 100 | > 100 | > 100 | > 100 | > 100 | > 100 | > 100 |  |  |  |  |  |  |  |  |  |
| O=C(O)C1C2c3ccccc3C(c3ccccc32)C1C(=O)NCC1CC1 (centres undefined) | > 100 | > 100 | > 100 | 70.5 | > 100 | > 100 | > 100 |  |  |  |  |  |  |  |  |  |
| COc1cc2c(cc1O)[C@H](C)C(c1ccc(OC)c(OC)c1)O2 (some centres undefined) |  | 17.4 | 37.8 | 35.9 |  | > 100 | 13.3 | 21.3 | 21.5 | 12.2 | 13.8 | 38.2 | 15.4 |  | 20 | 64.7 |
| Cc1ccc(Nc2nc(NNC(=O)Cc3ccccc3)nc(NNC(=O)c3ccncc3)n2)cc1 | > 10 | > 10 | > 10 | > 10 | > 10 | > 10 | > 10 |  |  |  |  |  |  |  |  |  |
